Test results published in article PMC6271477, “Effects of Single Amino Acid Substitution on the Biophysical Properties and Biological Activities of an Amphipathic α-Helical Antibacterial Peptide Against Gram-Negative Bacteria” (Molecules, 2014).

What was measured:
[1] = Tryptophan fluorescence, binding to lipid vesicles; details: for Tryptophan fluorescence emission maximum: excitation 280 nm
Method: Upon peptide diffusion into the cytoplasmic membrane, evidence of selective interaction between peptides with bacterial versus mammalian cytoplasmic membrane was illustrated by the binding events of the peptides to anionic or zwitterionic lipid vesicles. […] Lipid/peptide (L/P) ratios were maintained high enough at low peptide concentration (2 μM) in order to mimic the initial steps of peptide-membrane binding. The spectra were recorded as shown in Supplementary Figure S1. […] The significant blue shifts of Δλmax (17 to 23 nm) for all peptides upon exposure to PC/PG vesicles indicated a membrane partition state of Trp in negatively charged vesicles containing 30% anionic lipids (PG).
Unilamellar vesicles were prepared by a standard procedure with either PC/PG (7:3, w/w) or PC/cholesterol (8:1, w/w) as described previously. Briefly, the desired mixtures of lipids were dissolved in a chloroform/methanol mixture (2:1, v/v), dried under nitrogen and then lyophilized for 24 h to remove traces of organic solvent. Dry lipid films were suspended in 10 mM HEPES buffer containing 150 mM NaCl (pH 7.4) by vortex mixing. After five freeze-thawing cycles, the suspension was extruded 15 times through double polycarbonate membranes with 0.1 μm diameter pores on an Avanti mini-extruder apparatus. The lipid concentration was determined by phosphorus analysis as previously reported.
(§1) Fluorescence emission spectra of peptide Trp residues were monitored by a Shimadzu RF-5301 spectrofluorometer. The excitation of wavelength was set as 280 nm and the emission spectra of each peptide, with or without lipid vesicles, were recorded between 300 and 450 nm. Thus three curves were recorded for each peptide, in HEPES buffer or with either PC/PG vesicles or PC/cholesterol vesicles. The blue shift of Trp residues in vesicles were referred to in buffer condition. The final concentrations of peptide and lipid were 2 μM and 100 μM (1/50), respectively.

[2] = CD spectroscopy, helicity in benign buffer and in 50% TFE; assay type: physicochemical; details: for [θ]222, mean residue molar ellipticity, benign / [θ]222, mean residue molar ellipticity, 50% TFE: CD at 222 nm, peptide 75 μM; for [θ]222, mean residue molar ellipticity, benign / [θ]222, mean residue molar ellipticity, 50% TFE / % helix, 50% TFE: 25 °C; for [θ]222, mean residue molar ellipticity, benign: KP buffer (100 mM KCl, 50 mM K2HPO4/KH2PO4, pH 7.0); for [θ]222, mean residue molar ellipticity, 50% TFE / % helix, 50% TFE: KP buffer diluted 1:1 (v/v) with TFE; for % helix, 50% TFE / % helix, benign: relative to the molar ellipticity of peptide V16E in 50% TFE; for % helix, benign: KP buffer pH 7.0, 25 °C
Method: The secondary structures of peptides were determined in benign buffer and in a hydrophobic environment (50% trifluoroethanol, TFE) to mimic the hydrophobic environment of the membrane. […] The principle of side chain interaction at the i to i + 3 and i to i + 4 positions has been used to promote α-helix stability, for example, the incorporation of Lys and Glu residues to stabilize electrostatic attractions. Thus, the helicity of peptide V16E in the presence of 50% TFE that presented the greatest value among all analogs should rely on the contribution of the electrostatic attraction of the side chain of K13 and E16, which stabilizes the helix. The relative helicity is 100% for peptide V16E in 50% TFE, showing the importance of the salt bridges of K13 and E16 to stabilize the helical structure. In general, subtle side-chain alterations by single amino acid substitutions made no significant changes on secondary structures both in aqueous and in hydrophobic environments (Table 2).
Circular dichroism spectra were measured with a 0.02 cm path length quartz cuvette on a Jasco J-810 spectropolarimeter (Jasco, Tokyo, Japan) at 25 °C. Data were collected from 250 to 190 nm at a sensitivity of 100 millidegrees, response time of 1 s, bandwidth of 1.0 nm and a scan speed of 100 nm/min. Peptides were measured at a concentration of 75 μM in a benign buffer (50 mM KH2PO4/K2HPO4, 100 mM KCl, pH 7) or the benign buffer mixed with 50% 2,2,2-trifluoroethanol (TFE). The mean residue molar ellipticities were calculated using the equation [θ] = θ/10lcMn, where θ is the ellipticity in millidegrees, l is the optical path length of the cuvette in centimeters, cM is the peptide concentration in mole/liter and n is the number of residues in the peptide.

[3] = Tryptophan fluorescence in HEPES buffer; assay type: physicochemical; details: peptide 2 μM, excitation 280 nm
From the text: Upon peptide diffusion into the cytoplasmic membrane, evidence of selective interaction between peptides with bacterial versus mammalian cytoplasmic membrane was illustrated by the binding events of the peptides to anionic or zwitterionic lipid vesicles. The repositioning of the tryptophan indole group in an environment of reduced polarity upon membrane binding results in a blue shift in the fluorescence […] maximum coupled with an enhancement of emission intensity. Lipid/peptide (L/P) ratios were maintained high enough at low peptide concentration (2 μM) in order to mimic the initial steps of peptide-membrane binding. The spectra were recorded as shown in Supplementary Figure S1. […] The significant blue shifts of Δλmax (17 to 23 nm) for all peptides upon exposure to PC/PG vesicles indicated a membrane partition state of Trp in negatively charged vesicles containing 30% anionic lipids (PG).
as §1

[4] = Analytical RP-HPLC retention time as a measure of peptide hydrophobicity; assay type: physicochemical; details: RP-HPLC at 25 °C, Zorbax 300 SB-C8 column, linear AB gradient, A 0.1% aqueous TFA, B 0.1% TFA in acetonitrile, 1 mL/min, detection at 210 nm
Method: Among substitutions, the retention times ranged from 32.2 min (peptide V16K) to 40.4 min (peptide V16L), which reflect the pure effects of single amino acid substitutions. Thus, the retention times of peptides reflect the relative hydrophobicity of side chains. Consistent with previous studies, the hydrophobicity of peptide analogs was generally in the following order: Lys < Gly < Ser < Ala < Val < Leu. Glu-substituted peptide was an exception, as it contains a negatively-charged side chain and this should decrease the hydrophobicity of the peptide dramatically.
Peptides were analyzed on a Shimadzu LC-20A HPLC using a Zorbax 300 SB-C8 column (150 ° 4.6 mm i.d., 5 μm particle size, 300 Å pore size) from Agilent Technologies using a linear AB gradient and a flow rate of 1 mL/min, where solvents A and B were as described above. Absorbance signals of peptides were detected at 210 nm.

E. coli Clinical Isolate = assay type: cell-based; details: Clinical Isolate, 24 h
Method: (§2) Minimal inhibitory concentrations (MIC) were determined using a broth dilution method. Briefly, bacteria were grown overnight at 37 °C in Mueller–Hinton (MH) Broth, diluted in the same medium and transferred into 96-well microtiter plates (90 μL/well). Peptides were serially diluted using 0.2% bovine serum albumin containing 0.01% acetic acid and added to the microtiter plates in a volume of 10 μL per well to give a final concentration of 5 × 10^5 CFU/mL. MICs were defined as the lowest peptide concentration that inhibited bacterial growth after incubation for 24 h at 37 °C.

P. aeruginosa ATCC27853 = assay type: cell-based; details: ATCC27853, 24 h
Method: as §2

E. coli ATCC25922 = assay type: cell-based; details: ATCC25922, 24 h
Method: as §2

P. aeruginosa H188 = assay type: cell-based; details: H188, 24 h
Method: as §2

E. coli DH5α = assay: MIC by broth dilution; assay type: cell-based; details: MH broth, 5 × 10^5 CFU/mL, 24 h at 37 °C
Method: as §2

[5] = PC/PG (7:3, w/w) vesicles versus HEPES buffer, lipid:peptide 50:1, peptide 2 μM
[6] = PC/PG (7:3, w/w) vesicles, lipid and peptide in a molar ratio of 50:1, peptide 2 μM, lipid 100 μM
[7] = PC/cholesterol (8:1, w/w) vesicles versus HEPES buffer, peptide 2 μM, lipid 100 μM
[8] = PC/cholesterol (8:1, w/w) vesicles, peptide 2 μM, lipid 100 μM

Substance | Blue shift in emission maximum [1, 5] | Tryptophan fluorescence emission maximum [1, 6] | Blue shift in emission maximum [1, 7] | Tryptophan fluorescence emission maximum [1, 8] | [θ]222, mean residue molar ellipticity, benign [2] | [θ]222, mean residue molar ellipticity, 50% TFE [2] | % helix, 50% TFE [2] | % helix, benign [2] | Tryptophan fluorescence emission maximum [3] | tR, retention time during RP-HPLC (relative hydrophobicity) [4] | MIC (E. coli Clinical Isolate) | MIC (P. aeruginosa ATCC27853) | MIC (E. coli ATCC25922) | MIC (P. aeruginosa H188) | MIC (E. coli DH5α)
Ac-KWKSFLKTFKSAKKTALHTALKAISS-NH2 [Peptide V16A] | 22 nm | 328 nm | 1 nm | 349 nm | −3,057 degree·cm^2·dmol^−^1 | −28,769 degree·cm^2·dmol^−^1 | 95.7% | 10.2% | 350 nm | 36.6 min | 1 µg/mL | 4 µg/mL | 2 µg/mL | 4 µg/mL | 4 µg/mL
Ac-KWKSFLKTFKSAKKTELHTALKAISS-NH2 [Peptide V16E] | 17 nm | 333 nm | 1 nm | 349 nm | −3,465 degree·cm^2·dmol^−^1 | −30,063 degree·cm^2·dmol^−^1 | 100% | 11.5% | 350 nm | 34.6 min | 125 µg/mL | 125 µg/mL | 16 µg/mL | 64 µg/mL | 64 µg/mL
Ac-KWKSFLKTFKSAKKTGLHTALKAISS-NH2 [Peptide V16G] | 21 nm | 329 nm | 1 nm | 349 nm | −2,839 degree·cm^2·dmol^−^1 | −27,857 degree·cm^2·dmol^−^1 | 92.7% | 9.4% | 350 nm | 33.6 min | 16 µg/mL | 32 µg/mL | 8 µg/mL | 8 µg/mL | 8 µg/mL
Ac-KWKSFLKTFKSAKKTLLHTALKAISS-NH2 [Peptide V16L] | 23 nm | 326 nm | 2 nm | 348 nm | −3,595 degree·cm^2·dmol^−^1 | −29,803 degree·cm^2·dmol^−^1 | 99.1% | 12.0% | 350 nm | 40.4 min | 1 µg/mL | 2 µg/mL | 1 µg/mL | 2 µg/mL | 4 µg/mL
Ac-KWKSFLKTFKSAKKTSLHTALKAISS-NH2 [Peptide V16S] | 22 nm | 328 nm | 1 nm | 349 nm | −1,760 degree·cm^2·dmol^−^1 | −28,949 degree·cm^2·dmol^−^1 | 96.3% | 5.9% | 350 nm | 34.3 min | 16 µg/mL | 32 µg/mL | 8 µg/mL | 4 µg/mL | 8 µg/mL
